Measured values reported in patent publication US11331364B2, “Use for JNK inhibitor molecules for treatment of various diseases” (Xigen Inflammation Ltd., priority 2014, dated 2022).
Square brackets hold non-standard residues; d marks the D form. Peptide text beside a SMILES is read from it.

Legend:
human whole blood = assay: CD3/CD28-induced TNF-α release in human whole blood, 3 days; format: cell-based; settings: 1, 3, 10 μM, antibodies 2 μg/mL
Protocol: FIG. 24 JNK inhibition and TNF-α release in human whole blood. The JNK inhibitor with SEQ ID NO: 172 was added at three different concentrations, namely 1, 3 and 10 μM 1 h before whole blood stimulation with CD3+/−CD28 antibodies (2 μg/mL) for 3 days.
Whole blood from human healthy volunteers was collected using a venipuncture connected to a pre-labeled vacuum tube containing sodium citrate. Tubes are gently mixed by inversion 7-8 times; and are then kept at RT until stimulation. 350 μl of RPMI+P/S were added into 1.2 ml-96-well plate. 10 times concentrated of SEQ ID NO: 172 was prepared in RPMI+P/S (50 μl per well). 50 μl was added into 1.2 ml-96 well plates. 50 μl of whole blood was then added in each well where either medium alone or JNK inhibitor has been previously added. Whole blood was incubated at 37° C., 5% CO2 for 60 min. 50 μl/well of ligands diluted in RPMI+P/S was prepared, corresponding to the final dilution 10 times concentrated. After 60 min of incubation, ligand was added; wells were then mixed by pipetting up and down the blood. Whole blood was incubated for 3 days at 37° C. (wells were mixed by pipetting each well up and down once per day). […] Cytokine were then measured using standard Elisa kits. Results are expressed as pg/ml of supernatant of the measured cytokine. […]

JNK = JNK and c-Jun activation after Aβ42 stress in PKR−/− primary cortical neurons; format: cell-based, mouse; settings: 10 μM, 2 μM Aβ42
Protocol: To obtain primary cortical neuronal cultures, E15.5 mice embryos were dissected in PBS (Phosphate Buffered Saline) 6% glucose, on ice. Embryos cortices were minced into small pieces and treated with PBS glucose trypsin (Sigma Aldrich, Saint-Louis, USA) for 20 min at 37° C. Dissociated cortical cells were cultured in Neurobasal media complemented with B27, Glutamax and penicillin-streptomycin (Gibco). Neurons were cultured at 37° C., 5% CO2 on pre-coated with poly-L-lysin (Sigma Aldrich) petri dishes. Neurons were cultured to maturity (7 days) before use.
To induce […] stress 2 μM of Aβ1-42 (Thermo Fisher Scientific, Mass., USA) were used during 5 h on cortical neurons. Aβ42-1 inversed peptide (Thermo Fisher Scientific) was used as negative control. AP 1-42 and Aβ42-1 were dissolved in pure water and incubated at 37° C. for 48 h before use.
To inhibit JNK, cortical neurons were pre-treated with 10 μM of XG-104 1 h before cell-stress treatment.
For immunoblot analysis cells were lysed on ice in a lysis buffer containing […] NaPi pH 7.8, […] NaCl, 1% Triton, 0.5% DOC, 0.1% SDS, 10% glycerol, 0.1 μM calyculin A, 1 mM Na3VO4 and 1× of a protease inhibitor cocktail (Sigma Aldrich). Lysates were sonicated and centrifugated 10 min at 15000 g at 4° C. The supernatant protein concentration was determined with the Micro BCA protein assay kit (Thermo Scientific). Thirty micrograms of proteins were resolved on SDS-PAGE and transferred onto nitrocellulose membrane. After blocking with TBS 5% skim milk, the membranes were probed with primary antibodies to JNK full, c-Jun, PKR, eIF2α (Santa Cruz, Danvers, USA), pJNK (Millipore, Billerica, USA), phosphor eIF2a (Thermo Fisher Scientific), PARP and tubulin (Cell Signaling, Danvers, USA). IR Dyes 800 and 700 (Rockland Immunochemical Inc, Gilbertsville, USA) antibodies were used as secondary antibodies. Blots were reveled with Odyssey imaging system (LI-COR Biosciences, Lincoln, USA).

SMILES: CC(C)C[C@H](NC(=O)[C@H](CC(N)=O)NC(=O)[C@H](CC(C)C)NC(=O)[C@@H](NC(=O)[C@@H](C)NC(=O)[C@@H]1CCCN1C(=O)[C@H](CCCNC(=N)N)NC(=O)[C@@H](CCCCN)NC(=O)[C@@H]1CCCN1C(=O)[C@H](CCCNC(=N)N)NC(=O)[C@@H](CCCNC(=N)N)NC(=O)[C@H](CCCNC(=N)N)NC(=O)[C@H](CCCNC(=N)N)NC(=O)[C@H](CCC(N)=O)NC(=O)[C@@H](CCCNC(=N)N)NC(=O)[C@H](CCCNC(=N)N)NC(=O)[C@H](CCCCN)NC(=O)[C@H](CCCCN)NC(=O)[C@H](N)CCCNC(=N)N)[C@@H](C)O)C(=O)N[C@H](Cc1ccccc1)C(N)=O [SEQ ID NO: 172, rKKRrQRRrRPkRPaTLNLf] (H-[dR]KKR[dR]QRR[dR]RP[dK]RP[dA]TLNL[dF]-NH2; N-terminus assumed)
- CD3/CD28-induced TNF-α release (human whole blood): did reduce the CD3/CD28-induced TNF-α release in a dose-dependent manner
- c-Jun activation (JNK; PKR−/− cultures): does not modify c-Jun activation
- decrease of c-Jun protein expression (JNK; PKR−/− cultures): 62%
- JNK activation (JNK; PKR−/− neurons): −60%
